# Experimental data as given in patent US20200368166A1, “Oral Formulations And Uses Thereof” (Eustralis Pharmaceuticals Limited (Trading As Pressura …, priority 2018, published 2020).
# Values joined by “and” are separate entries in the source; they are usually repeats but may differ in a detail not shown here. Identical values can stand only once.
# How the values were obtained:
# Type in all cases: physicochemical
# pH of the API = assay: pH of the API
# From the text: Compound (Ia) HCl (API) is an acidic compound with an approximate pH of 2.5. Compound of Formula (I), in particular compound (Ia) as shown below, is used in all examples, and in particular the 2HCl salt of compound (Ia) (Compound (Ia) 2HCl).
# [1] = Particle size distribution (Malvern Mastersizer)
# Protocol: The particle size distribution of compound (Ia) 2HCl (API) was determined using a Malvern Mastersizer. D(0.1) means that 10% of the sample is present as particles smaller than this size. D(0.5) means that 50% of the sample is present as particles smaller than this size. D(0.9) means that 90% of the sample is present as particles smaller than this size.
# [2] = Bulk and tap density, Carr's index
# Protocol: Measurement of the bulk and tap density provides information on the flow properties and compressibility of the API. The bulk density is measured as the density of the material as it is “poured” or passively filled into a measuring vessel, whereas the tap density is a limiting density attained after “tapping in” the material. A Carr's index greater than 25 is considered to be an indication of poor flowability, and below 15, of good flowability.
# Measurement of the bulk and tap density provides information on the flow and compressibility of the blend. Bulk and tap density and the subsequent Carr's index were determined on the Formulation 5 blend and the results are given in Table 13.
# [3] = Solubility in dissolution media (sink conditions test); details: 37° C.
# Protocol: Selection of the dissolution medium is based on the solubility data and the dose range in order to ensure that sink conditions are met. The term ‘sink conditions’ is defined as the volume of medium at least greater than three times that required to form a saturated solution of drug substance.
# The sink conditions test was performed as per USP 38 <1092> in the following dissolution medium: • 1. HCl 0.01 N, • 2. Buffer pH 6.8, • 3. Water.
# Solubility determinations were performed on 75 mg of Compound (Ia) HCl dissolved in 250 mL of different media at 37° C. and stirred slightly. The λmax was determined by UV scan between 200-400 nm. Refer to Table 18 for the results.
# [4] = Intrinsic dissolution rate (IDR) of compressed disc; details: 200 mg disc, 100 rpm, 37° C.
# Protocol: The IDR is determined by monitoring the drug release rate of a compressed disc of the pre-formulated drug. The IDR is independent of formulation effects and measures the intrinsic properties of the drug and salts as a function of dissolution media effects such as pH and ionic strength. A comparison of the IDR of the drug in water with that obtained in acid and alkali will provide a measure of the drug's ability to control its immediate microenvironment.
# The IDR was determined by preparing a compressed disc containing 200 mg of Compound (Ia) 2HCl using slow compression. All metal surfaces were pre-lubricated using 4 drops of a 5% w/v solution of stearic acid in chloroform. The solvent was allowed to evaporate, the Compound (Ia) 2HCl added and the sample slowly compressed to 6 tonne. This pressure was maintained for 4 minutes to ensure adequate compression.
# The discs were then rotated at 100 rpm, 25 mm from the bottom of a 1 litre flat bottomed dissolution vessel containing 1 litre of fluid maintained at 37° C. Manual sampling, with a sampling volume of 5 mL, was employed at 5, 10, 15, 30 and 60 minutes. The amount of drug released was then monitored, by HPLC. Compound (Ia) 2HCl was evaluated in 0.01N HCl (equivalent to gastric pH), phosphate buffer pH 6.8 (intestinal) and distilled water. Refer Table 19 for the percentage of Compound (Ia) 2HCl released.
# [5] = API milled prior to GLP tablet manufacture (Table 16)
smiles,measurement,setting,value
Cc1ccccc1-c1cc(N2CCN(C)CC2)ncc1C(=O)N(C)Cc1cc(C(F)(F)F)cc(C(F)(F)F)c1 [Compound (Ia) 2HCl],approximate pH,pH of the API,~2.5
same,Particle Size D (0.1),[1]; API before milling (Table 1),8.41 μm
same,Particle Size D (0.5),[1]; API before milling (Table 1),76.13 μm
same,Particle Size D (0.9),[1]; API before milling (Table 1),404.59 μm
same,Particle Size D (0.1),[1]; [5],1.2 μm
same,Particle Size D (0.5),[1]; [5],38.6 μm
same,Particle Size D (0.9),[1]; [5],133.3 μm
same,Bulk Density,[2],0.63 g/mL
same,Carr's Index,[2],24.29%
same,Tap Density,[2],0.83 g/mL
same,Appearance,"[3]; 75 mg in 250 mL 0.01N Hydrochloric Acid (pH 2.0), full cell: Clear, homogeneous, translucent to light yellow.","Clear,"
same,Appearance,"[3]; 75 mg in 250 mL Phosphate Buffer (pH 6.8), full cell: White, turbid, heterogeneous liquid.","White, turbid,"
same,Time to Dissolve,[3]; 75 mg in 250 mL Purified Water,21 s
same,Appearance,"[3]; 75 mg in 250 mL Purified Water, full cell: Clear, homogeneous, translucent to light yellow.","Clear,"
same,% Released (IDR),"[4]; 0.01N 2HCl, t = 0 mins",0%
same,% Released (IDR),"[4]; 0.01N 2HCl, t = 5 mins",80% and 70%
same,% Released (IDR),"[4]; 0.01N 2HCl, t = 10 mins",100% and 97%
same,% Released (IDR),"[4]; 0.01N 2HCl, t = 15 mins",101% and 98%
same,% Released (IDR),"[4]; 0.01N 2HCl, t = 30 mins",102% and 99%
same,% Released (IDR),"[4]; 0.01N 2HCl, t = 60 mins",101% and 98%
same,% Released (IDR),"[4]; Phosphate buffer pH 6.8, t = 0 mins",0%
same,% Released (IDR),"[4]; Phosphate buffer pH 6.8, t = 5 mins",68% and 60%
same,% Released (IDR),"[4]; Phosphate buffer pH 6.8, t = 10 mins",85% and 81%
same,% Released (IDR),"[4]; Phosphate buffer pH 6.8, t = 15 mins",72% and 83%
same,% Released (IDR),"[4]; Phosphate buffer pH 6.8, t = 30 mins",73% and 77%
same,% Released (IDR),"[4]; Phosphate buffer pH 6.8, t = 60 mins",59% and 60%
same,% Released (IDR),"[4]; Water, t = 0 mins",0%
same,% Released (IDR),"[4]; Water, t = 5 mins",84% and 71%
same,% Released (IDR),"[4]; Water, t = 10 mins",101% and 98%
same,% Released (IDR),"[4]; Water, t = 15 mins",101% and 100%
same,% Released (IDR),"[4]; Water, t = 30 mins",100% and 102%
same,% Released (IDR),"[4]; Water, t = 60 mins",100%
